Key:
RIP3 [1] = biological target: T1, RIP3 (Homo sapiens, UniProt Q9Y572); test: Basal S227 auto-phosphorylation of RIP3 in HT-29 cells (immunoblot); assay type: cell-based; set-up: RIP3-expressing HT-29 cells; endogenous in cells; host or cells: HT-29; conditions: 10 μM, 9 h
Experimental: (§1) Cells were rinsed in cold phosphate-buffered saline (PBS) and lysed in M2 buffer containing 20 mM Tris at pH 7, 0.5% NP-40, 250 mM NaCl, 3 mM EDTA, 3 mM EGTA, 2 mM DTT, 0.5 mM PMSF, 20 mM β-glycerol phosphate, 1 mM sodium vanadate, and 1 μg/mL leupeptin. The cell extracts were subjected to western blot analysis. For immunoprecipitation, lysates were mixed and precipitated with antibody and protein A-agarose beads overnight or for 4 h at 4 °C. Bound proteins were removed by boiling in SDS and resolved by SDS-PAGE, and immunoblotting was visualized by enhanced chemiluminescence (ECL, Amersham).
RIP3 kinase activity is essential for TNF-induced necroptosis, and human S227 auto-phosphorylation sites of RIP3 are required for the interaction of RIP3 with its substrate MLKL[13],[14], which is indispensable for downstream necroptotic cell death signaling. To test the possible effects of the RIP3 inhibitors on necroptosis, HT-29 cells were treated with the kinase inhibitors, and RIP3 kinase activity was determined by examining its phosphorylation status.
(§2) Fig. 2 Novel inhibitors can block RIP3 S227 phosphorylation. a Western blotting showing various kinase inhibitor effects on RIP3 S227 auto-phosphorylation. HT-29 cells were treated with four tested kinase inhibitors (1308, 1336, 1338, and 1371, 10 μM) for 9 h. As a control, KK5101 (Trk alpha inhibitor) and HS829 (IKK beta inhibitor) were also treated at a concentration of 10 μM for 9 h. Prototypical necroptosis stimuli (TNF + zVAD + either cycloheximide or SMAC mimetic; hereafter referred to as TCZ or TSZ) were applied for 6 h. […] HT-29 cells were treated with 4 tested kinase inhibitors for 24 h, and cell viability was analyzed by MTT assay or phase-contrast microscopy. […] HT-29 cells were pretreated with necrostatin-1 (Nec-1, 40 μM), dabrafenib (DAB, 10 μM) or necrosulfonamide (NSA, 1 μM) for 2 h and then treated with TSZ for 6 h. […] HT-29 cells were pretreated with four tested kinase inhibitors for 2 h and then treated with TSZ for 6 h. Cell lysates were analyzed by immunoblotting. f HT-29 cells were pretreated with Nec-1 (40 μM), DAB (5 μM) or HS-1371 (5 μM) for 2 h and then treated with TSZ for 4 h. Cell lysates were immunoprecipitated with anti-RIP3 antibody. Immunoprecipitates and total lysates were analyzed by Western blotting

RIP3 [2] = biological target: T1, RIP3; test: S227 auto-phosphorylation of overexpressed RIP3 in 293T cells (immunoblot); assay type: cell-based; conditions: 293T cells transfected with Flag-hRIP3
From the text: TNFα Smac mimetic and the caspase inhibitor zVAD (hereafter referred to as TSZ) is a classical combination that is used to induce RIP3-mediated necroptotic cell death[10],[32]. We first verified that three established pharmacological inhibitors of necroptosis, necrostatin-1 (Nec-1), necrosulfonamide (NSA), and dabrafenib (DAB) could block TNF-induced necroptosis (Fig. 2d). Of these inhibitors, Nec-1 inhibits RIP1 kinase activity[33],[34], DAB inhibits RIP3 kinase activity, and NSA inhibits MLKL functions downstream of RIP3 phosphorylation. […] Next, we tested whether these four inhibitors would inhibit TNF-induced necroptosis signaling by blocking RIP3 kinase activity. […] The effect of HS-1371 on RIP3 kinase activity was compared with another RIP3 inhibitor, GSK’872[16]. […]
(a) Overexpression of RIP3 could induce S227 phosphorylation without stimuli. […] After cells were harvested, cell lysates were analyzed by […]
kinase inhibitor. HT-29 cells were treated with HS -1371 or GSK’872 indicated concentrations for 9 h, and cell lysates were analyzed by immunoblotting.
(c) Cytotoxicity of HS-1371 was compared with GSK’872. HT-29 cells were treated with 2 kinase inhibitors for 24 h and cell viability was analyzed by MTT assay.
(d) Inhibition of MLKL phosphorylation by HS-1371 was compared with other two RIP3 kinases inhibitors, DAB (5 μM) and GSK’872 (5 μM). […] Cell lysates were analyzed by […]

p-MLKL = test: Phospho-MLKL immunofluorescence in HT-29 cells; assay type: cell-based, human; conditions: HT-29, immunofluorescence
Experimental: HT-29 cells were fixed in 4% paraformaldehyde for 10 min. To stain phospho-MLKL, cells were permeabilized with 0.25% Triton X-100 for 10 min. After incubation in a blocking buffer (10% fetal bovine serum in DPBS) for 30 min, the primary antibody to phospho-MLKL was incubated overnight at 4 °C, and FITC-conjugated secondary antibody (goat anti-rabbit IgG, 1:250, dilution, Invitrogen) was incubated for 1 h at room temperature. A mounting medium containing DAPI (VECTASHIELD, Cat No. 94010, Vector Laboratories) was used for counterstaining. Representative images were taken by confocal microscope.
HT-29 cells were pretreated with four tested inhibitors for 2 h and then treated with TSZ (6 h for immunoblotting, 24 h for cell death assay). Cell lysates were analyzed by immunoblotting, and cell viability was analyzed by MTT assay or phase-contrast microscopy. The results are presented as the means ± SEM. *P < 0.05, **P < 0.01, ***P < 0.001. b Protection of necroptosis by HS-1371 treatment is similar with dabrafenib, which abolished downstream events. HT-29 cells were pretreated with various necroptosis inhibitors and HS-1371 before TSZ treatment. Cell lysates were analyzed by immunoblotting, and cell viability was analyzed by MTT assay (left panel). Cells were stained with phospho-MLKL antibody and analyzed by confocal fluorescence microscopy (middle panel), and cell death was further analyzed by FACS analysis after PI staining (right panel). c HS-1371 protects cells from TNF-induced necroptosis in a dose-dependent manner. HT-29 cells were pretreated with indicated concentrations of HS-1371 and then treated with TSZ (6 h for immunoblotting, 24 h for cell death assay). Cell lysates were analyzed by immunoblotting, and cell viability was analyzed by MTT assay or phase-contrast microscopy. The results are presented as means ± SEM. *P < 0.05, **P < 0.01, ***P < 0.001 TEXT PRINTED IN THE PICTURE: (b) TSZ: 20.7 | (b) TSZ + Nec-1: 5.8 | (b) TSZ + DAB: 5.5 | (b) TSZ + 1371: 6.8 DOUBTS OF THE COPYIST ABOUT THIS PICTURE: Panel b, flow cytometry plots: the red gate numbers are printed without a measure or unit, so none is given / Panel b: the 'Untreated' control plot prints 7.7; left out because it is not a substance

RIP3 [3] = biological target: T1, RIP3; test: TNF (TSZ)-induced RIP3 and MLKL phosphorylation in HT-29 cells (immunoblot); assay type: cell-based; set-up: RIP3-expressing HT-29 cells; endogenous in cells; host or cells: HT-29; conditions: HT-29; Nec-1 40 μM, DAB 10 μM, NSA 1 μM pretreated 2 h, TSZ 6 h
Experimental: as §1, §2
TNFα Smac mimetic and the caspase inhibitor zVAD (hereafter referred to as TSZ) is a classical combination that is used to induce RIP3-mediated necroptotic cell death[10],[32]. We first verified that three established pharmacological inhibitors of necroptosis, necrostatin-1 (Nec-1), necrosulfonamide (NSA), and dabrafenib (DAB) could block TNF-induced necroptosis (Fig. 2d). Of these inhibitors, Nec-1 inhibits RIP1 kinase activity[33],[34], DAB inhibits RIP3 kinase activity, and NSA inhibits MLKL functions downstream of RIP3 phosphorylation. […] Next, we tested whether these four inhibitors would inhibit TNF-induced necroptosis signaling by blocking RIP3 kinase activity. […] The effect of HS-1371 on RIP3 kinase activity was compared with another RIP3 inhibitor, GSK’872[16].

T1 sequence (Q9Y572 whole entry): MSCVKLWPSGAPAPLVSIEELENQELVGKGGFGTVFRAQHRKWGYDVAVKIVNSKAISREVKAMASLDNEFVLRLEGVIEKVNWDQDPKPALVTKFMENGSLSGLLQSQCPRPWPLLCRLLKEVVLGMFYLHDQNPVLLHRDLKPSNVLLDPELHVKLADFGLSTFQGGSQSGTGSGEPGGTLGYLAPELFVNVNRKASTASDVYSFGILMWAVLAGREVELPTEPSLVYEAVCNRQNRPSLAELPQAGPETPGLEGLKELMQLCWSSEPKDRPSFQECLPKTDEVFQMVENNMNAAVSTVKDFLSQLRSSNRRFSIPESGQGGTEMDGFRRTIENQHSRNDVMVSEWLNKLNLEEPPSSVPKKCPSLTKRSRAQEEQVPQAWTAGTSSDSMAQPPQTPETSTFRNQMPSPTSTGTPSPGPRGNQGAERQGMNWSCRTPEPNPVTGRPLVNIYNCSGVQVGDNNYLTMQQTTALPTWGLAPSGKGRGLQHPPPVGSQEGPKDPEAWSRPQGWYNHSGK

Row | S227 auto-phosphorylation of overexpressed RIP3 (RIP3 [2]) | Structure (SMILES) | effect on S227 auto-phosphorylation of RIP3 at the basal level (RIP3 [1]) | p-MLKL detection / translocation after TSZ (p-MLKL) | block of TNF-induced necroptosis (RIP3 phosphorylation) (RIP3 [3])
1 | – | Fc1ccccc1Nc1ccnc2cc(-c3cnn(C4CCNCC4)c3)ccc12 [HS-1308] | inhibitory effect | – | –
2 | – | Fc1ccc(Oc2ccnc3cc(-c4cnn(C5CCNCC5)c4)ccc23)c(F)c1 [HS-1336] | inhibitory effect | – | –
3 | – | Fc1cccc(Oc2ccnc3cc(-c4cnn(C5CCNCC5)c4)ccc23)c1 [HS-1338] | inhibitory effect | – | –
4 | inhibited | CC(C)(C)c1nc(-c2cccc(NS(=O)(=O)c3c(F)cccc3F)c2F)c(-c2ccnc(N)n2)s1 [dabrafenib] | – | no detection of p-MLKL | could block
5 | – | CN1C(=O)C(Cc2c[nH]c3ccccc23)NC1=S (stereo not shown) [necrostatin-1, reference compound] | – | no detection of p-MLKL | could block
6 | – | COc1nccnc1NS(=O)(=O)c1ccc(NC(=O)/C=C/c2ccc([N+](=O)[O-])s2)cc1 [necrosulfonamide, reference compound] | – | could not translocate into the plasma membrane | could block

— article PMC6148246, “HS-1371, a novel kinase inhibitor of RIP3-mediated necroptosis” (Experimental & Molecular Medicine, 2018)
